In one data set the target is LdMetRS (Leishmania donovani, UniProt A0A3Q8IBX2). Briefly: LdMetRS BIOMOL Green biochemical assay, 10-point dose response. Particulars: 50 μM methionine, 100 μM ATP; for IC50: read-out: LdMetRS pIC50 (converted).
Another data set in a line: CHI LogD measurement. It is filed as physicochemical. How it is done:
CHI LogD measurements were performed as described elsewhere.[29] cLogP measurements were calculated using StarDrop (Optibrium).

In the next data set the target is TcMetRS (Trypanosoma cruzi, UniProt Q4D6H2). Briefly: TcMetRS BIOMOL Green biochemical assay, 10-point dose response. The settings on record: for IC50 / Emax: 50 μM methionine, 100 μM ATP; for IC50: 80 nM TcMetRS, read-out: TcMetRS pIC50 (converted); for Emax: read-out: TcMetRS Maximum % Inhibition; for TcMetRS Maximum % Inhibition Plateau: Table 3, plateau of dose-response curve.
Chain of TcMetRS (Q4D6H2 entry or part of it): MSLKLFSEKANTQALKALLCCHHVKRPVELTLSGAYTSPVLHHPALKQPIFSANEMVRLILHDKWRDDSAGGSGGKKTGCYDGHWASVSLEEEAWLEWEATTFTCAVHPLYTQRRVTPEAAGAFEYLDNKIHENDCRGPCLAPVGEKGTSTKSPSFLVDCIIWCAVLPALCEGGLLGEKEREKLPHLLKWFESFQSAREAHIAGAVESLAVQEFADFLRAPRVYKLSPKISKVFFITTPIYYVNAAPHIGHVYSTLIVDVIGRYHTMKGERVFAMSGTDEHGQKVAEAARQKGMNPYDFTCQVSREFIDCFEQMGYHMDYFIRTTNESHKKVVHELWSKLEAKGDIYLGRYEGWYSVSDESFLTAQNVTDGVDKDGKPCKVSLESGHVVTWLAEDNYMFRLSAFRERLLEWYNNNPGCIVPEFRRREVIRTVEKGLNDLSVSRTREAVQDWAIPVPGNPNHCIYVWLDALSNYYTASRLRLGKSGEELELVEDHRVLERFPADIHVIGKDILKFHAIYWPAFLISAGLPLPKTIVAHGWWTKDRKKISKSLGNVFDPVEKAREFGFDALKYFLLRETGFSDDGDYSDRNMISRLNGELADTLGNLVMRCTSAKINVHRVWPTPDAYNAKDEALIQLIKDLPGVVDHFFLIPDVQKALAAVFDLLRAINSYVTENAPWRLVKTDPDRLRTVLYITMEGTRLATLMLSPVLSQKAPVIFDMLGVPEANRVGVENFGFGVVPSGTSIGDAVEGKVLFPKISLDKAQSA

Data set [1] can be described thus: Aqueous solubility, filtration-based method. It is filed as physicochemical. The settings on record: phosphate-buffered saline pH 7.4, 24 h, 25 °C; for solubility at 24 h: aqueous buffer, kinetic from dmso stock. The protocol: Solubility was assessed using a filtration-based method. Test compounds were dissolved in DMSO to give 10 mM solutions. Five microliters of the 10 mM solution was added to 195 μL of phosphate-buffered saline at pH 7.4 and mixed for 24 h (rotary mixing, 900 rpm, 25 °C) excluding light. After mixing, the samples were filtered to remove any undissolved material using a Millipore Multiscreen HTS filter. The filtrate was analyzed for dissolved drug compounds using UHPLC.

Setting [2] is: 50 nM LdMetRS, pIC50 = −log IC50 (M).
The mark [3] stands for this setting: plateau of dose-response curve, read-out: LdMetRS Maximum % Inhibition Plateau.
[4] abbreviates: chromatography (chromatographic hydrophobicity index).
Where [5] appears, read: chromatographic hydrophobicity index.
[6] abbreviates: Table 2, read-out: LdMetRS Maximum % Inhibition.

Data on 29 compounds can be found in article PMC7294809, “Discovery of an Allosteric Binding Site in Kinetoplastid Methionyl-tRNA Synthetase” (ACS Infectious Diseases, 2020).

The structures appear in SMILES notation. Converted amounts (≈) assume the structure as drawn. Where two headings read alike, the source gives them in different places. Bounds are passed on as bounds.

Chain of LdMetRS (A0A3Q8IBX2 entry or part of it): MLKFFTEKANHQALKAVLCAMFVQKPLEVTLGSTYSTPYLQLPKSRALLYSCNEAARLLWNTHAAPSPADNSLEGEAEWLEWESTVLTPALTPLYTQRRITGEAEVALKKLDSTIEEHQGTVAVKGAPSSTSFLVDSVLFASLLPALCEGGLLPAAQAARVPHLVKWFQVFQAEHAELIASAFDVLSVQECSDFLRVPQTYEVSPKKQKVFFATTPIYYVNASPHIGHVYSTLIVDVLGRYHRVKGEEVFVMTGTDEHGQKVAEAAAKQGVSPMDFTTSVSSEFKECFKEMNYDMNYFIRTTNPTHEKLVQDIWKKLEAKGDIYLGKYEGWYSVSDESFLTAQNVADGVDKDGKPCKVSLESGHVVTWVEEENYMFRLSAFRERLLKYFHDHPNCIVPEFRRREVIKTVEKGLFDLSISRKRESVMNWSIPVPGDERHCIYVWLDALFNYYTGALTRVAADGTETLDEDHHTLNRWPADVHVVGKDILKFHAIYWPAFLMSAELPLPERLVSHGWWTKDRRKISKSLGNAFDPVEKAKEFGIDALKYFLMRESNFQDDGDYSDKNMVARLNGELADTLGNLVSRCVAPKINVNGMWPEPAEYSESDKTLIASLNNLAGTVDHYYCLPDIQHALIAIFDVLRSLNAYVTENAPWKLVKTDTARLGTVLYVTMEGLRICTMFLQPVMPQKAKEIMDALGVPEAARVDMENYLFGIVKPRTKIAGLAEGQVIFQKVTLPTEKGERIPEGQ

Turning to `Cn1ncc2c(NCCO)nc(Nc3ccc(Cl)cc3)nc21` [Compound 1], the IC50 at LdMetRS (setting [2]) is 7.94e-06 M. Also, the Emax on LdMetRS (setting [3]) worked out at 89.5%.
Take `Cn1ncc2c(NCCO)nc(Nc3ccc(F)cc3)nc21` [Compound 2]: the chromatographic logD in the data set “CHI LogD measurement” (setting [4]) came to 1.32. Also, the IC50 on LdMetRS (setting [2]) is 2.51e-05 M. Further, the Emax on LdMetRS (setting [3]) was 94.2%.
For `Cn1ncc2c(NCCO)nc(Nc3cccc(Cl)c3)nc21` [Compound 3] the same measures were 1.82, 1.26e-05 M and 94.7%.
In the data set “CHI LogD measurement” (setting [4]), `Cn1ncc2c(NCCO)nc(Nc3cccc(F)c3)nc21` [Compound 4] came in with a chromatographic logD of 1.48. In addition, the IC50 at LdMetRS (setting [2]) was 3.16e-05 M. Besides, the Emax at LdMetRS (setting [3]) is 83.7%.
On the same counts, the results for `Cn1ncc2c(NCCO)nc(Nc3ccc(F)c(F)c3)nc21` [Compound 5] are 1.64, 1.26e-05 M and 98.7%.
With `Cn1ncc2c(NCCO)nc(Nc3ccc(F)cc3F)nc21` [Compound 6], the IC50 on LdMetRS (setting [2]) is 1.26e-05 M. The Emax at LdMetRS (setting [3]) was determined as 102%.
Consider `COc1ccc(Nc2nc(NCCO)c3cnn(C)c3n2)cc1Cl` [Compound 7], for which the IC50 at LdMetRS (setting [2]) is > 0.0001 M.
`Cn1ncc2c(NCCO)nc(NC3CCCCC3)nc21` [Compound 8]: the values for the IC50 at TcMetRS and on LdMetRS (setting [2]) were > 100 µM and > 0.0001 M, respectively. Moreover, the Emax came to 16.3% at TcMetRS and 11.1% at LdMetRS (setting [6]). In the data set “CHI LogD measurement” (setting [5]), this compound came in with a chromatographic logD of 1.74.
On the same counts, the results for `Cn1ncc2c(NCCO)nc(NC3CCOCC3)nc21` [Compound 9] are > 100 µM, > 0.0001 M, 15%, 17.3% and 0.04.
For `Cn1ncc2c(NCCO)nc(N3CCCCC3)nc21` [Compound 10] the same measures were > 100 µM, > 0.0001 M, 13.6%, 10.8% and 1.49.
As for `CC(C)Nc1nc(NCCO)c2cnn(C)c2n1` [Compound 11], the results for the IC50 on TcMetRS and at LdMetRS (setting [2]) were > 100 µM and > 0.0001 M, respectively. The Emax on TcMetRS is 6.3%; at LdMetRS (setting [6]), 5.3%. In the data set “CHI LogD measurement” (setting [5]), this compound registered a chromatographic logD of 0.63.
For `CN(c1cccc(F)c1)c1nc(NCCO)c2cnn(C)c2n1` [Compound 12] the same measures were > 100 µM, > 0.0001 M, 11.7%, 10.2% and 1.51.
`COc1cc(Nc2nc(NCCO)c3cnn(C)c3n2)ccc1F` [Compound 14]: the figures for the IC50 on TcMetRS and on LdMetRS (setting [2]) were > 100 µM and > 0.0001 M, respectively. In addition, the results for the Emax at TcMetRS and on LdMetRS (setting [6]) were 4.9% and 36.8%, respectively.
For `CC(C)Oc1cc(Nc2nc(NCCO)c3cnn(C)c3n2)ccc1F` [Compound 15] the same measures were > 100 µM, > 0.0001 M, 5.4% and 6.9%.
As for `CC(C)Cc1cc(Nc2nc(NCCO)c3cnn(C)c3n2)ccc1F` [Compound 16], the IC50 on TcMetRS was > 100 µM; at LdMetRS (setting [2]), > 0.0001 M. Besides, the Emax on TcMetRS came out at 15.4%; at LdMetRS (setting [6]), 17.1%.
For `Cn1ncc2c(Nc3ccc(F)c(F)c3)nc(Nc3ccc(F)c(F)c3)nc21` [Compound 17], the figures for the IC50 at TcMetRS and at LdMetRS (setting [2]) were > 100 µM and > 0.0001 M, respectively. Besides, the chromatographic logD in “CHI LogD measurement” (setting [5]) was found to be 3.82. In data set [1], this compound had a solubility at 24 h of 0.38 µM (≈ 0.148 µg/mL).
Take `CNc1nc(Nc2ccc(F)c(F)c2)nc2c1cnn2C` [Compound 18]: the IC50 was > 100 µM at TcMetRS and 6.31e-06 M at LdMetRS (setting [2]). This compound registered a chromatographic logD in “CHI LogD measurement” (setting [5]) of 2.31. On LdMetRS (setting [3]), the Emax amounted to 98.7%. The solubility at 24 h in data set [1] stood at 58 µM (≈ 16.8 µg/mL).
For `CN(CCO)c1nc(Nc2ccc(F)c(F)c2)nc2c1cnn2C` [Compound 20] the same measures were > 100 µM, 2.51e-06 M, 1.99, 69.9% and 2.4 µM (≈ 0.802 µg/mL).
For `COCCNc1nc(Nc2ccc(F)c(F)c2)nc2c1cnn2C` [Compound 21] the same measures were > 100 µM, 6.31e-06 M, 2.49, 99.7% and 23.3 µM (≈ 7.79 µg/mL).
Turning to `Cn1ncc2c(NC3CCCCC3O)nc(Nc3ccc(F)c(F)c3)nc21` (stereo not shown) [Compound 22], the IC50 was > 100 µM at TcMetRS and 3.98e-06 M at LdMetRS (setting [2]). Besides, the chromatographic logD in the data set “CHI LogD measurement” (setting [5]) was 2.5. Also, the Emax on LdMetRS (setting [3]) was determined as 61%.
Regarding `Cn1ncc2c(NC3CCOCC3)nc(Nc3ccc(F)c(F)c3)nc21` [Compound 23], the IC50 on TcMetRS is > 100 µM; at LdMetRS (setting [2]), 7.94e-06 M. In addition, the chromatographic logD in “CHI LogD measurement” (setting [5]) was found to be 2.45. In addition, the Emax at LdMetRS (setting [3]) turned out to be 65.4%. In data set [1], this compound registered a solubility at 24 h of 0.59 µM (≈ 0.213 µg/mL).
In the case of `Cn1ncc2c(N3CCCCC3)nc(Nc3ccc(F)c(F)c3)nc21` [Compound 24], the IC50 at TcMetRS is > 100 µM. The compound further came in with a chromatographic logD in the data set “CHI LogD measurement” (setting [5]) of 3.93. At LdMetRS (setting [2]), the “LdMetRS pIC50” value was “inactive” and the IC50 is > 0.0001 M. In data set [1], the solubility at 24 h is 0.46 µM (≈ 0.158 µg/mL).
In the case of `Cn1ncc2c(N3CCC[C@H]3CO)nc(Nc3ccc(F)c(F)c3)nc21` [Compound 25], the IC50 on TcMetRS is > 100 µM; on LdMetRS (setting [2]), 7.94e-06 M. Moreover, the chromatographic logD in “CHI LogD measurement” (setting [5]) was 2.43. Besides, the Emax at LdMetRS (setting [3]) came to 87.7%. Also, in data set [1], the solubility at 24 h was found to be 6.1 µM (≈ 2.2 µg/mL).
For `CNC(=O)CNc1nc(Nc2ccc(F)c(F)c2)nc2c1cnn2C` [Compound 26] the same measures were > 100 µM, 2e-05 M, 1.38, 68.9% and 201 µM (≈ 69.8 µg/mL).
In the case of `Cc1noc(CNc2nc(Nc3ccc(F)c(F)c3)nc3c2cnn3C)n1` [Compound 28], the IC50 is > 100 µM at TcMetRS and 6.31e-06 M on LdMetRS (setting [2]). For the same compound, at LdMetRS (setting [3]), the Emax stood at 68.7%. The solubility at 24 h in data set [1] came out at 0.72 µM (≈ 0.268 µg/mL).
`COC(=O)[C@H](Nc1nc(Nc2ccc(F)c(F)c2)nc2c1cnn2C)C(C)C` [Compound 29]: the IC50 on TcMetRS is 10 µM; at LdMetRS (setting [2]), 7.94e-07 M. For the same compound, at TcMetRS, the “TcMetRS Maximum % Inhibition Plateau” value turned out to be 51.5%. Moreover, the chromatographic logD in “CHI LogD measurement” (setting [5]) stood at 6.22. The Emax at LdMetRS (setting [3]) stood at 100%. This compound displayed a solubility at 24 h in data set [1] of 39.1 µM (≈ 15.3 µg/mL).
Regarding `COC(=O)[C@@H](CO)Nc1nc(Nc2ccc(F)c(F)c2)nc2c1cnn2C` [Compound 30], the IC50 on TcMetRS is 39.8 µM; on LdMetRS (setting [2]), 1.26e-06 M. At TcMetRS, the “TcMetRS Maximum % Inhibition Plateau” value worked out at 93.3%. This compound also came in with a chromatographic logD in “CHI LogD measurement” (setting [5]) of 3.78. Moreover, the Emax at LdMetRS (setting [3]) was determined as 102%. In data set [1], this compound displayed a solubility at 24 h of 29.8 µM (≈ 11.3 µg/mL).
Turning to `COC(=O)C(Cc1c[nH]cn1)Nc1nc(Nc2ccc(F)c(F)c2)nc2c1cnn2C` (stereo not shown) [Compound 31], the IC50 on TcMetRS is 2 µM; on LdMetRS (setting [2]), 2e-07 M. The compound also came in with a chromatographic logD in the data set “CHI LogD measurement” (setting [5]) of 3.63. The “LdMetRS Maximum % Inhibition Plateau” value at LdMetRS (plateau of dose-response curve) is listed as “full inhibition”. The Emax at LdMetRS (setting [3]) stood at 100%. Also, the solubility at 24 h in data set [1] was found to be 128 µM (≈ 54.8 µg/mL). The “Aqueous Solubility” value in data set [1] is listed as “good solubility”.
For the compound `COC(=O)C1(Nc2nc(Nc3ccc(F)c(F)c3)nc3c2cnn3C)CC1` [Compound 32], the IC50 on TcMetRS was > 100 µM; at LdMetRS (setting [2]), 7.94e-07 M. This compound returned a chromatographic logD in the data set “CHI LogD measurement” (setting [5]) of 4.91. Besides, the Emax at LdMetRS (setting [3]) amounted to 94.7%.

One may read the chromatographic logD as lipophilicity estimated from chromatographic retention. By solubility is commonly meant how much of the substance goes into solution per volume. A higher solubility goes with much dissolved substance.
